# pIC50: −log10 of the molar value.
# Target: TXK (Homo sapiens (Human), UniProt P42681)
# Assay: Kinase inhibition assay (Nanosyn, microfluidic detection), TXK
# Format: biochemical
# Conditions: 1 mM ATP, 3 hours at 25° C.
# Procedure: The in vitro kinase assays were performed at Nanosyn (Santa Clara, Calif.) utilizing microfluidic detection technology. The test compounds were serially pre-diluted in DMSO and added, by the acoustic dispensing (Labcyte® 550), directly to 384 well assay plates into 10 uL of a buffer with enzyme (ITK, TXK, BTK or TEC) comprising: 100 mM HEPES, pH7.5, 5 mM MgCl2, 0.1% bovine serum albumin, 1 mM DTT, 0.01% Triton X-100 and the enzyme. Final DMSO concentration was maintained at 1% in all samples, including the controls. The reactions were initiated by addition of ATP (1 mM final concentration) and the fluorescently labeled peptide substrate to a final concentration of 1 uM, and incubated for 3 hours at 25° C. Following incubation, the reactions were quenched by addition of 40 μL of termination buffer (100 mM HEPES, pH7.5, 0.01% Triton X-100, 50 mM EDTA). Terminated plates were analyzed using Caliper LabChip® 3000 microfluidic electrophoresis instrument (Caliper Life Sciences/Perkin Elmer). […] As substrate and product are separated by electrophoresis, two peaks of fluorescence are observed. Change in the relative fluorescence intensity of the substrate and product peaks was the parameter measured, reflecting enzyme activity. In the presence of inhibitor, the ratio between product and substrate is altered: signal of the product decreases, while the signal of the substrate increases. Activity in each test sample was determined as the product to sum ratio (PSR): P/(S+P), where P is the peak height of the product and S is the peak height of the […]. For each compound, enzyme activity was measured at 12 concentrations spaced by 3× dilution intervals. Negative control samples (0%-inhibition in the absence of inhibitor, DMSO only) and positive control samples (100%-inhibition, in the absence of enzyme or in the presence of control inhibitor) were assembled in replicates of four and were used to calculate %-inhibition values in the presence of compounds. Percent inhibition (Pinh) was determined using the following equation: Pinh=(PSR0%−PSRinh)/(PSR0%−PSR100%)*100, where PSRinh is the product sum ratio in the presence of inhibitor, PSR0% is the product sum ratio in the absence of inhibitor and PSR100% is the product sum ratio in 100%-inhibition control samples. To determine IC50 values, the inhibition curves (Pinh versus inhibitor concentration) were fitted by 4 parameter sigmoid dose-response model using XLfit software (IDBS).
# TXK, sequence (P42681 whole entry): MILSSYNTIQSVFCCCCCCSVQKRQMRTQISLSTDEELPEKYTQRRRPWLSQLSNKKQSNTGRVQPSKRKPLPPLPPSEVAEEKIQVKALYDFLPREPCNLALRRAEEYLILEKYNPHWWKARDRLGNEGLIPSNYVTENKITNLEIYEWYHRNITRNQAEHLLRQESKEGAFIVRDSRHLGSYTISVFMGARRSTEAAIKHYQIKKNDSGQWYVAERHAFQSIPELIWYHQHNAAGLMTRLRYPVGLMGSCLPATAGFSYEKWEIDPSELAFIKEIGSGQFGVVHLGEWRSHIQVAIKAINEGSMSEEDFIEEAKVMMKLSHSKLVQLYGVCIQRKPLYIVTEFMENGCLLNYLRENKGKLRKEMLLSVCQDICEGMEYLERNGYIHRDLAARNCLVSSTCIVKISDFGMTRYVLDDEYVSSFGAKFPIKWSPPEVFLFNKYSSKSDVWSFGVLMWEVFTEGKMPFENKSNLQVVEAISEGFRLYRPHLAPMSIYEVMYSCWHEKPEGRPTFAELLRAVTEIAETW
row,SMILES,pIC50
1,C=CC(=O)N1CC[C@]2(C1)C[C@H](n1c(NC(=O)c3ccc(-c4ccc(CO)nc4)s3)nc3ccccc31)C2 [Compound 144],8.82
2,C=CC(=O)N1CC[C@]2(C1)C[C@H](n1c(NC(=O)c3ccc(C(=O)OC)s3)nc3ccccc31)C2 [Compound 98],9.51
3,C=CC(=O)N1CC[C@]2(C1)C[C@@H](n1c(NC(=O)c3ccc(-c4cnco4)s3)nc3ccc(Cl)cc31)C2 [Compound 69],8.11
4,C=CC(=O)N1CC[C@]2(C1)C[C@H](n1c(NC(=O)c3ccc(N4CCCC4=O)s3)nc3ccccc31)C2 [Compound 121],8.26
5,C=CC(=O)N1CC[C@]2(C1)C[C@H](n1c(NC(=O)c3cnc(C(C)C)s3)nc3cc(CN[C@@H](C)C(C)(C)C)ccc31)C2 [Compound 7],9.22
6,C=CC(=O)N1CCC[C@]2(C1)C[C@@H](n1c(NC(=O)c3ccc(C(F)F)s3)nc3cc(CN[C@@H](C)C(C)(C)C)ccc31)C2 [Compound 10],9.08
7,C=CC(=O)N1CC[C@]2(C1)C[C@H](n1c(NC(=O)c3cnco3)nc3cc(CN[C@@H](C)C(C)(C)C)ccc31)C2 [Compound 6],8.54
8,C=CC(=O)N1CC[C@]2(C1)C[C@H](n1c(NC(=O)c3cccnc3)nc3cc(CN[C@@H](C)C(C)(C)C)ccc31)C2 [Compound 22],8.77
9,C=CC(=O)N1CC[C@]2(C1)C[C@H](n1c(NC(=O)c3ccc(-c4cnco4)s3)nc3ccc(CO)cc31)C2 [Compound 73],9.59
10,C=CC(=O)N1CC[C@]2(C1)C[C@H](n1c(NC(=O)c3ccc(-c4cnco4)s3)nc3c(OC)cccc31)C2 [Compound 87],8.24
11,C=CC(=O)N1CC[C@]2(C1)C[C@H](n1c(NC(=O)c3ccc(-c4ccc(C#N)cc4)s3)nc3ccccc31)C2 [Compound 118],8.14
12,C=CC(=O)N1CC[C@]2(C1)C[C@H](n1c(NC(=O)c3ccc(C(=O)N4CCOCC4)s3)nc3ccccc31)C2 [Compound 91],7.75
13,C=CC(=O)N1CCC[C@]2(C1)C[C@H](n1c(NC(=O)c3ccc(C(F)F)s3)nc3cc(CN[C@@H](C)C(C)(C)C)ccc31)C2 [Compound 9],9.70
14,C=CC(=O)N1CC[C@]2(C1)C[C@@H](n1c(NC(=O)c3ccc(C(F)F)s3)nc3ccccc31)C2 [Compound 17],7.96
15,C=CC(=O)N1CC[C@]2(C1)C[C@H](n1c(NC(=O)c3ccc(NC(=O)c4cccnc4)s3)nc3ccccc31)C2 [Compound 111],7.19
16,C=CC(=O)N1CC[C@]2(C1)C[C@H](n1c(NC(=O)c3ccc(-c4cccc(C#N)c4)s3)nc3ccccc31)C2 [Compound 122],8.91
17,C=CC(=O)N1CC[C@]2(C1)C[C@H](n1c(NC(=O)c3ccc(NC(=O)C4CCCC4)s3)nc3ccccc31)C2 [Compound 106],7.52
18,C=CC(=O)N1CC[C@]2(C1)C[C@H](n1c(NC(=O)c3ccc(-c4nc(C)no4)s3)nc3ccccc31)C2 [Compound 92],7.19
19,C=CC(=O)N1CC[C@]2(C1)C[C@H](n1c(NC(=O)c3ccc(-c4cncnc4)s3)nc3cc(CO)ccc31)C2 [Compound 148],9.16
20,C=CC(=O)N1CC[C@]2(C1)C[C@@H](n1c(NC(=O)c3ccc(-c4cnco4)s3)nc3cc(Cl)ccc31)C2 [Compound 71],7.75
21,C=CC(=O)N1CC[C@]2(C1)C[C@H](n1c(NC(=O)c3ccc(-c4noc(C)n4)s3)nc3ccccc31)C2 [Compound 93],8.01
22,C=CC(=O)N1CC[C@]2(C1)C[C@H](n1c(NC(=O)c3ccc(C(=O)Nc4cccnc4)s3)nc3ccccc31)C2 [Compound 85],8.50
23,C=CC(=O)N1CC[C@]2(C1)C[C@H](n1c(NC(=O)c3ccc(C(=O)N4CCCC4)s3)nc3ccccc31)C2 [Compound 102],8.25

# Target: BTK (Homo sapiens (Human), UniProt Q06187)
# Assay: Kinase inhibition assay (Nanosyn, microfluidic detection), BTK
# Format: biochemical
# Conditions: 1 mM ATP, 3 hours at 25° C.
# Procedure: The in vitro kinase assays were performed at Nanosyn (Santa Clara, Calif.) utilizing microfluidic detection technology. The test compounds were serially pre-diluted in DMSO and added, by the acoustic dispensing (Labcyte® 550), directly to 384 well assay plates into 10 uL of a buffer with enzyme (ITK, TXK, BTK or TEC) comprising: 100 mM HEPES, pH7.5, 5 mM MgCl2, 0.1% bovine serum albumin, 1 mM DTT, 0.01% Triton X-100 and the enzyme. Final DMSO concentration was maintained at 1% in all samples, including the controls. The reactions were initiated by addition of ATP (1 mM final concentration) and the fluorescently labeled peptide substrate to a final concentration of 1 uM, and incubated for 3 hours at 25° C. Following incubation, the reactions were quenched by addition of 40 μL of termination buffer (100 mM HEPES, pH7.5, 0.01% Triton X-100, 50 mM EDTA). Terminated plates were analyzed using Caliper LabChip® 3000 microfluidic electrophoresis instrument (Caliper Life Sciences/Perkin Elmer). The enzymatic modification of the peptide substrate (phosphorylation) results in a change of net charge enabling electrophoretic separation of product from substrate. As substrate and product are separated by electrophoresis, two peaks of fluorescence are observed. Change in the relative fluorescence intensity of the substrate and product peaks was the parameter measured, reflecting enzyme activity. In the presence of inhibitor, the ratio between product and substrate is altered: signal of the product decreases, while the signal of the substrate increases. Activity in each test sample was determined as the product to sum ratio (PSR): P/(S+P), where P is the peak height of the product and S is the peak height of the […]. For each compound, enzyme activity was measured at 12 concentrations spaced by 3× dilution intervals. Negative control samples (0%-inhibition in the absence of inhibitor, DMSO only) and positive control samples (100%-inhibition, in the absence of enzyme or in the presence of control inhibitor) were assembled in replicates of four and were used to calculate %-inhibition values in the presence of compounds. Percent inhibition (Pinh) was determined using the following equation: Pinh=(PSR0%−PSRinh)/(PSR0%−PSR100%)*100, where PSRinh is the product sum ratio in the presence of inhibitor, PSR0% is the product sum ratio in the absence of inhibitor and PSR100% is the product sum ratio in 100%-inhibition control samples. To determine IC50 values, the inhibition curves (Pinh versus inhibitor concentration) were fitted by 4 parameter sigmoid dose-response model using XLfit software (IDBS).
# BTK, sequence (Q06187 whole entry): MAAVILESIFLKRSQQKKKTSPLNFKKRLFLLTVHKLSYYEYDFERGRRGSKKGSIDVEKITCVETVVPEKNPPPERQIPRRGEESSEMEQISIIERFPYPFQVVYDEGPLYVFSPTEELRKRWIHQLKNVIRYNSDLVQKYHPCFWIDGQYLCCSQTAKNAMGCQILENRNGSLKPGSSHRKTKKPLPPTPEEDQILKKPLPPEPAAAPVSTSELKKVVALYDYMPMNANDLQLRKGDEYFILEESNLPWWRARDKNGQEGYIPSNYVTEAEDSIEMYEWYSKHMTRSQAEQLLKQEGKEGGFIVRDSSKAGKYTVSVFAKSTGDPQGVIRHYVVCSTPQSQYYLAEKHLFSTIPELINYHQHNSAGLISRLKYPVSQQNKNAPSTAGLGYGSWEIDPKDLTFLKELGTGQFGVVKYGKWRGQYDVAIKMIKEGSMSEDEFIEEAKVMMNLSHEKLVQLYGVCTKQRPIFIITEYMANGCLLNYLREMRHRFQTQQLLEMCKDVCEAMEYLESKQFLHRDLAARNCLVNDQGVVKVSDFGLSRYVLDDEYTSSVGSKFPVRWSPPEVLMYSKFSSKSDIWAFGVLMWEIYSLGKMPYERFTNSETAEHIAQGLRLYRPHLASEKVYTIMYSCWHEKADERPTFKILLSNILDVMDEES
row,SMILES,pIC50
1,C=CC(=O)N1CC[C@]2(C1)C[C@H](n1c(NC(=O)c3ccc(-c4ccc(CO)nc4)s3)nc3ccccc31)C2 [Compound 144],8.46
2,C=CC(=O)N1CC[C@]2(C1)C[C@H](n1c(NC(=O)c3ccc(-c4ccnc(NC)c4)s3)nc3ccccc31)C2 [Compound 131],9.34
3,C=CC(=O)N1CC[C@]2(C1)C[C@@H](n1c(NC(=O)c3ccc(C(F)F)s3)nc3cc(CN[C@@H](C)C(C)(C)C)ccc31)C2 [Compound 3],7.57
4,C=CC(=O)N1CC[C@]2(C1)C[C@H](n1c(NC(=O)c3cnc(C(C)C)s3)nc3cc(CN[C@@H](C)C(C)(C)C)ccc31)C2 [Compound 7],8.66
5,C=CC(=O)N1CC[C@]2(C1)C[C@H](n1c(NC(=O)c3cnco3)nc3cc(CN[C@@H](C)C(C)(C)C)ccc31)C2 [Compound 6],8.37
6,C=CC(=O)N1CC[C@]2(C1)C[C@H](n1c(NC(=O)c3cccnc3)nc3cc(CN[C@@H](C)C(C)(C)C)ccc31)C2 [Compound 22],8.32
7,C=CC(=O)N1CC[C@]2(C1)C[C@H](n1c(NC(=O)c3cncs3)nc3cc(CN[C@@H](C)C(C)(C)C)ccc31)C2 [Compound 13],8.74
8,C=CC(=O)N1CC[C@]2(C1)C[C@H](n1c(NC(=O)c3ccc(-c4cnco4)s3)nc3cc(CN[C@H]4CC[C@H](O)CC4)ccc31)C2 [Compound 42],9.28
9,C=CC(=O)N1CC[C@]2(C1)C[C@H](n1c(NC(=O)c3ccc(-c4ccnc(N)n4)s3)nc3ccccc31)C2 [Compound 138],9.39
10,C=CC(=O)N1CC[C@]2(C1)C[C@H](n1c(NC(=O)c3ccc(-c4cncc(N)c4)s3)nc3ccccc31)C2 [Compound 128],9.20
11,C=CC(=O)N1CC[C@]2(C1)C[C@H](n1c(NC(=O)c3ccc(C(F)F)s3)nc3cc(CN4CCOCC4)ccc31)C2 [Compound 27],8.59
12,C=CC(=O)N1CC[C@]2(C1)C[C@H](n1c(NC(=O)c3ccc(-c4cnco4)s3)nc3cc(CNCC(C)(C)CO)ccc31)C2 [Compound 44],9.18
13,C=CC(=O)N1CC[C@]2(C1)C[C@H](n1c(NC(=O)c3ccc(C(F)(F)CO)s3)nc3ccccc31)C2 [Compound 130],8.97
14,C=CC(=O)N1CC[C@]2(C1)C[C@H](n1c(NC(=O)c3ccc(C(F)F)s3)nc3cc(CN[C@@H](C)C(C)(C)C)ccc31)C2 [Compound 2],9.00
15,C=CC(=O)N1CC[C@]2(C1)C[C@H](n1c(NC(=O)c3ccc(-c4cc[nH]c(=O)c4)s3)nc3ccccc31)C2 [Compound 97],9.48
16,C=CC(=O)N1CC[C@]2(C1)C[C@H](n1c(NC(=O)c3ccns3)nc3cc(CN[C@@H](C)C(C)(C)C)ccc31)C2 [Compound 25],9.15
17,C=CC(=O)N1CC[C@]2(C1)C[C@@H](n1c(NC(=O)c3ccc(-c4cnco4)s3)nc3cc(F)ccc31)C2 [Compound 68],7.38
18,C=CC(=O)N1CC[C@]2(C1)C[C@H](n1c(NC(=O)c3ccc(C(C)(F)F)s3)nc3ccccc31)C2 [Compound 30],8.68
19,C=CC(=O)N1CC[C@]2(C1)C[C@H](n1c(NC(=O)c3ccc(-c4cnco4)s3)nc3cc(F)ccc31)C2 [Compound 57],8.96
20,C=CC(=O)N1CC[C@]2(C1)C[C@H](n1c(NC(=O)c3ccc(C(F)F)s3)nc3cc(CNCC(C)(C)CO)ccc31)C2 [Compound 37],9.02
21,C=CC(=O)N1CC[C@]2(C1)C[C@H](n1c(NC(=O)c3ccc(-c4cnco4)s3)nc3cc(CN[C@@H](C)C(C)(C)C)ccc31)C2 [Compound 4],9.19
22,C=CC(=O)N1CC[C@]2(C1)C[C@H](n1c(NC(=O)c3ccc(C#N)cc3)nc3cc(CN[C@@H](C)C(C)(C)C)ccc31)C2 [Compound 19],8.87
23,C=CC(=O)N1CC[C@]2(C1)C[C@H](n1c(NC(=O)c3ccc(-c4ccnc(C)n4)s3)nc3ccccc31)C2 [Compound 149],9.17

# — patent US10752615B2, “Spirocyclic containing compounds and pharmaceutical uses thereof” (GB005, Inc., priority 2016, dated 2020)
